Reference: the supplement of paper PMC11208160

Assay: recombinant barcode read abundance after kanamycin selection (control-corrected) (log10(CPM+1)); higher = more efficient recombination; sequences stand for … in AGTGCAGAGAAAATCGGCCAGTTTTCTCTGCCTGCAGTCCGCATGCCGT…AGATTTATGCAGCGGACTGCCTTTCTCCCAAAGTGATAAACCGGACAGTATCATGGACCGGTTTTCCCGGTAATCCGTATTTGCAAGGTTGGTTTCACT; site = the 11-nt target
In short: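 Duplicate cultures were plated either on chloramphenicol/ampicillin LB agar, serving as control, or on chloramphenicol/ampicillin/kanamycin with 0.1 mM IPTG. These came from a pooled E. coli library co-electroporated with a donor plasmid, each member pairing a target with an IS621 bridge RNA target-binding loop. Recombination efficiency equals averaged, control-corrected counts per million of recombinant-junction barcodes. It is listed as log10(CPM+1).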
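Also: IS621 recombinase and bridge RNA in Escherichia coli cells.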

Sequence | recombinant barcode read abundance (log10)
CGAACGACTTGGGTTCTAACCTGTTGCCT (site CGAACGACTAG) | 0.259
CGAACTACTTGGGTTCTAACCTGTTGCGT (site CGAACTACTAA) | 0.22
CGAACTACTTGGGTTCTAACCTGTTGCGT (site CGAACTACTAC) | 0.143
CGAACTACTTGGGTTCTAACCTGTTGCGT (site CGAACTACTAG) | 0.109
CGAACTACTTGGGTTCTAACCTGTTGCGT (site CGAACTACTAT) | 0.0569
CGAAGATCTTGGGTTCTAACCTGTTGCCT (site CAAAGATCTAG) | 0.142
CGAAGATCTTGGGTTCTAACCTGTTGCCT (site CCAAGATCTAG) | 0
CGAAGATCTTGGGTTCTAACCTGTTGCCT (site CGAAGATCTAG) | 0.273
CGAAGATCTTGGGTTCTAACCTGTTGCCT (site CTAAGATCTAG) | 0.069
CGACACTCTTGGGTTCTAACCTGTTGCCT (site CAACACTCTAG) | 0.107
CGACACTCTTGGGTTCTAACCTGTTGCCT (site CCACACTCTAG) | 0.164
CGACACTCTTGGGTTCTAACCTGTTGCCT (site CGACACTCTAG) | 0.251
CGACACTCTTGGGTTCTAACCTGTTGCCT (site CTACACTCTAG) | 0.0214
CGACAGTCTTGGGTTCTAACCTGTTGCCT (site CGACAGTCTAG) | 0.687
CGACAGTCTTGGGTTCTAACCTGTTGCCT (site TAGATTCCTTT) | 0.201
CGACATACTTGGGTTCTAACCTGTTGCGT (site CGACATACTAC) | 0.593
CGACATACTTGGGTTCTAACCTGTTGCGT (site GGACATGCTAC) | 0.0511
CGACCCTCTTGGGTTCTAACCTGTTGCTT (site ACACCCTCTAA) | 0.178
CGACCCTCTTGGGTTCTAACCTGTTGCTT (site CGACCCTCTAA) | 1.39
CGACCTACTTGGGTTCTAACCTGTTGCTA (site CGACCTACTTA) | 0.088

Sequence | recombinant barcode read abundance (log10)
CGACCTACTTGGGTTCTAACCTGTTGCTA (site GTACCTACTTA) | 0.17
CGACCTGCTTGGGTTCTAACCTGTTGCCT (site CGACCTGCTAG) | 0.246
CGACCTGCTTGGGTTCTAACCTGTTGCCT (site CGCCCTACTAG) | 0.249
CGACGAACTTGGGTTCTAACCTGTTGCCT (site CGACGAACTAG) | 0.201
CGACGAACTTGGGTTCTAACCTGTTGCCT (site GTCAATCCTCC) | 0.0212
CGACGTCCTTGGGTTCTAACCTGTTGCGG (site CGACGTCCTCC) | 1.74
CGACGTCCTTGGGTTCTAACCTGTTGCGG (site TGAAGTCCTCC) | 0.00826
CGACTTACTTGGGTTCTAACCTGTTGCAT (site ACGGGCTCTGA) | 0.103
CGACTTACTTGGGTTCTAACCTGTTGCAT (site CGACTTACTAT) | 0.0348
CGAGCTCCTTGGGTTCTAACCTGTTGCCT (site CGAGCTCCTAA) | 0.763
CGAGCTCCTTGGGTTCTAACCTGTTGCCT (site CGAGCTCCTAC) | 0.582
CGAGCTCCTTGGGTTCTAACCTGTTGCCT (site CGAGCTCCTAG) | 1.24
CGAGCTCCTTGGGTTCTAACCTGTTGCCT (site CGAGCTCCTAT) | 0.157
CGAGGCCCTTGGGTTCTAACCTGTTGCTT (site CGAGGCCCTAA) | 1.93
CGAGGCCCTTGGGTTCTAACCTGTTGCTT (site GTCCTATCTGT) | 0.0488
CGAGTGACTTGGGTTCTAACCTGTTGCCA (site CGAGTGACTTG) | 0.906
CGAGTGACTTGGGTTCTAACCTGTTGCCA (site TTCCGTCCTAA) | 0.382
CGATCGACTTGGGTTCTAACCTGTTGCAG (site CGACCGACTCT) | 0.401
CGATCGACTTGGGTTCTAACCTGTTGCAG (site CGATCGACTCT) | 0.809
CGATCGCCTTGGGTTCTAACCTGTTGCCT (site CGATCGCCTAG) | 0.339

Sequence | recombinant barcode read abundance (log10)
CGATCGCCTTGGGTTCTAACCTGTTGCCT (site GGACCGCCTAG) | 0.0952
CGATGTGCTTGGGTTCTAACCTGTTGCCT (site CGATGTCCTAG) | 0.334
CGATGTGCTTGGGTTCTAACCTGTTGCCT (site CGATGTGCTAG) | 0.535
CGATTTCCTTGGGTTCTAACCTGTTGCAT (site CGATTTCCTAG) | 0
CGATTTCCTTGGGTTCTAACCTGTTGCAT (site CGATTTCCTAT) | 0.0511
CGCCATCCTTGGGTTCTAACCTGTTGCAT (site CGCCATCCTAT) | 0.134
CGCCATCCTTGGGTTCTAACCTGTTGCAT (site CGCCCTCCTAT) | 0.227
CGCCATCCTTGGGTTCTAACCTGTTGCAT (site CGCCGTCCTAT) | 0.0349
CGCCATCCTTGGGTTCTAACCTGTTGCAT (site CGCCTTCCTAT) | 0.569
CGCCCACCTTGGGTTCTAACCTGTTGCCT (site CGCCCACCTAG) | 0.0145
CGCCCACCTTGGGTTCTAACCTGTTGCCT (site CTCCAACCTAG) | 0
CGCCCTACTTGGGTTCTAACCTGTTGCCT (site CGACCTGCTAG) | 0.236
CGCCCTACTTGGGTTCTAACCTGTTGCCT (site CGCCCTACTAG) | 0.239
CGCCGTCCTTGGGTTCTAACCTGTTGCAT (site CGCCATCCTAT) | 0.0426
CGCCGTCCTTGGGTTCTAACCTGTTGCAT (site CGCCCTCCTAT) | 0.103
CGCCGTCCTTGGGTTCTAACCTGTTGCAT (site CGCCGTCCTAT) | 0.279
CGCCGTCCTTGGGTTCTAACCTGTTGCAT (site CGCCTTCCTAT) | 0.099
CGCCTAGCTTGGGTTCTAACCTGTTGCCT (site CGCCTAGCTAG) | 0.206
CGCCTAGCTTGGGTTCTAACCTGTTGCCT (site CTCCTACCTAG) | 0.0925
